# Laboratory results from patent US8962641B2, “Pyrimidine-substituted pyrrolidine derivatives, pharmaceutical compositions and uses thereof” (Boehringer Ingelheim International GmbH, priority 2013, dated 2015).
# Molecular target: human ACC2 (Homo sapiens (Human), UniProt O00763)
# Assay: ACC2 assay (spectrophotometric 384 well assay, NADH-linked kinetic method)
# Assay type: biochemical
# Conditions: hACC2 construct lacking 128 N-terminal amino acids; coupled lactate dehydrogenase/pyruvate kinase reaction, 340 nm, 25° C.
# In short: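 Baculovirus/insect-cell human ACC2, anion-exchange purified; ADP formation coupled to pyruvate kinase/lactate dehydrogenase, NADH loss followed at 340 nm, 25° C, 15 min. Final 200 μM NADH and acetyl-CoA, 500 uM ATP; vehicle and no-acetyl-CoA wells set 100% and 0%.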
# Sequence of human ACC2 (O00763 129-2458): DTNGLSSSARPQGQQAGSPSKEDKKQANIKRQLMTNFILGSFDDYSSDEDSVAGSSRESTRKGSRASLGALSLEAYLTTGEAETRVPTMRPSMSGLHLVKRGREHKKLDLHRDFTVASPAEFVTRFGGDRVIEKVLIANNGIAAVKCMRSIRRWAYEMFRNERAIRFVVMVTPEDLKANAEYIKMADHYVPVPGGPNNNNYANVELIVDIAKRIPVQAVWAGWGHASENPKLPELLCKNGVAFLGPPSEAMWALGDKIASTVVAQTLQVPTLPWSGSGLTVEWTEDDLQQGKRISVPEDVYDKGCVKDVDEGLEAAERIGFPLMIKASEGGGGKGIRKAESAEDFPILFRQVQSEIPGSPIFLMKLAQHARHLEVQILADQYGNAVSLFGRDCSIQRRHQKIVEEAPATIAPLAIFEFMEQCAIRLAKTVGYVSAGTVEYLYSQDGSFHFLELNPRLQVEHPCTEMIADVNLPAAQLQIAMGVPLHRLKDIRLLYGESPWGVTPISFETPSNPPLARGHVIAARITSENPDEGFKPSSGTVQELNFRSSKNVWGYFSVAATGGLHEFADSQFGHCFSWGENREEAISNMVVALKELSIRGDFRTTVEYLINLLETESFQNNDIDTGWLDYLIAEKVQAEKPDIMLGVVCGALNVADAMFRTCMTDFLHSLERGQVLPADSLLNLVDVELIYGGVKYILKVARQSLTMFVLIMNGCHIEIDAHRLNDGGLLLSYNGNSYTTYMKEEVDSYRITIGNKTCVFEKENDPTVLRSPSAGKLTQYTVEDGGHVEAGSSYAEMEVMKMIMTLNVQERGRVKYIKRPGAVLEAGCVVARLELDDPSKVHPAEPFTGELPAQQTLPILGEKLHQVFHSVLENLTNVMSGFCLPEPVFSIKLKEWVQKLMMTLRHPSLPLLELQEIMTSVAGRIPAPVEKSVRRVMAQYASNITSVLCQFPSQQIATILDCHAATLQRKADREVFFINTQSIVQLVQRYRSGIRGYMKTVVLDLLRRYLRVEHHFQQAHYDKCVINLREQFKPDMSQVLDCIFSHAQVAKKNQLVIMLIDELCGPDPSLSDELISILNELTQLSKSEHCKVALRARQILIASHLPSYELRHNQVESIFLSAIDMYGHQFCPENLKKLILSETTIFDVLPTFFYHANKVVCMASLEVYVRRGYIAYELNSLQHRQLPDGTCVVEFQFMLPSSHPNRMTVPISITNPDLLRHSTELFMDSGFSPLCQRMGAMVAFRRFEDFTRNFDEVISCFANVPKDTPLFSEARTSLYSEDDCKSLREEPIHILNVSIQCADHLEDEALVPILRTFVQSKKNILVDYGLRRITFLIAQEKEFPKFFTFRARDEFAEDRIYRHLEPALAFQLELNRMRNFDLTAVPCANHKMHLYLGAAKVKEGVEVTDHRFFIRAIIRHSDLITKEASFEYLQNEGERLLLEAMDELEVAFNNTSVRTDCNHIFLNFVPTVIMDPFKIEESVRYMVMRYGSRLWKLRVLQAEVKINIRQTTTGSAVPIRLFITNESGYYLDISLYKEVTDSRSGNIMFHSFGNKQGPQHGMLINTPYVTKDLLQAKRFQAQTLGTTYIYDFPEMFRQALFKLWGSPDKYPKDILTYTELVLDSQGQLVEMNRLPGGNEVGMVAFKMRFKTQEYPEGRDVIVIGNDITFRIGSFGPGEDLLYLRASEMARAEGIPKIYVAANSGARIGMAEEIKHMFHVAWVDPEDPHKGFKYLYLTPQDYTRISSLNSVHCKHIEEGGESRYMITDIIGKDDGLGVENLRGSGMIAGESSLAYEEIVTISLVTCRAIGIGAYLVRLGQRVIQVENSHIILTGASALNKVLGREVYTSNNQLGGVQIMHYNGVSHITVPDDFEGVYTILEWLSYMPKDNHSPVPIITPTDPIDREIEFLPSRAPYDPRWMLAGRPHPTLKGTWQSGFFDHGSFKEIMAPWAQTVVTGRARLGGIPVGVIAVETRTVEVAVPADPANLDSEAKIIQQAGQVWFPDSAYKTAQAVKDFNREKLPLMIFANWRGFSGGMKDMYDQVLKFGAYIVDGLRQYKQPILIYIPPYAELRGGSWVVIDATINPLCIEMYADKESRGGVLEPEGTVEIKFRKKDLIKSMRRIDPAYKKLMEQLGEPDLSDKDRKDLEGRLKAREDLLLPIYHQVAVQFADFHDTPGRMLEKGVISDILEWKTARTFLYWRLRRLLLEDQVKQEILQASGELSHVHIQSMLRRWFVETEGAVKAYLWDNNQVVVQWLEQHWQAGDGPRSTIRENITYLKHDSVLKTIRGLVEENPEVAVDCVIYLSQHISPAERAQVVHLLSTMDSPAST
row,IC50,SMILES
1,455 nM,COCCCN(C)c1ncnc(N2CC[C@@H](Oc3ccc([C@H](C)NC(C)=O)cc3)C2)c1F [Example 8.270]
2,905 nM,CC(=O)N[C@@H](C)c1ccc(O[C@@H]2CCN(c3nc(N(C)CC4CCOC4)ncc3C)C2)cc1 (some centres unmarked) [Example 8.52]
3,475 nM,CC(=O)N[C@@H](C)c1ccc(O[C@@H]2CCN(c3ccnc(N(C)C4CC4)n3)C2)cc1 [Example 8.19]
4,37 nM,CCN(CC(F)(F)F)c1nccc(N2CC[C@@H](Oc3ccc([C@H](C)NC(C)=O)cc3)C2)n1 [Example 8.79]
5,165 nM,COCCN(CC(F)F)c1nccc(N2CC[C@@H](Oc3ccc([C@H](C)NC(C)=O)cc3)C2)n1 [Example 8.83]
6,830 nM,CCC(=O)Nc1nc(C)c(C(=O)N[C@@H](C)c2ccc(O[C@@H]3CCN(c4ncnc(NCC(F)F)c4OC)C3)cc2)s1 [Example 8.321]
7,117 nM,COc1c(OCC(C)(F)F)ncnc1N1CC[C@@H](Oc2ccc([C@H](C)NC(C)=O)cc2)C1 [Example 7.49]
8,986 nM,CC(=O)N[C@@H](C)c1ccc(O[C@@H]2CCN(c3ccnc(N(C)CCc4ccccc4)n3)C2)cc1 [Example 8.22]
9,156 nM,CCCNc1ncnc(N2CC[C@@H](Oc3ccc([C@H](C)NC(C)=O)cc3)C2)c1Cl [Example 8.298]
10,145 nM,COC(C)(C)COc1ncnc(N2CC[C@@H](Oc3ccc([C@H](C)NC(C)=O)cc3)C2)c1Cl [Example 7.60]
11,278 nM,CC(=O)N[C@@H](C)c1ccc(O[C@@H]2CCN(c3nc(N4CCC(F)(F)C4)ncc3Cl)C2)cc1 [Example 8.128]
12,105 nM,CC(=O)N[C@@H](C)c1ccc(O[C@@H]2CCN(c3ccnc(N4CCSCC4)n3)C2)cc1 [Example 8.91]
13,1220 nM,COc1ccc(N(C)c2nccc(N3CC[C@@H](Oc4ccc([C@H](C)NC(C)=O)cc4)C3)n2)cc1 [Example 8.38]
14,166 nM,CC(=O)N[C@@H](C)c1ccc(O[C@@H]2CCN(c3ncnc(N(C)CC(F)F)c3Cl)C2)cc1 [Example 8.115]
15,79 nM,CC(=O)N[C@@H](C)c1ccc(O[C@@H]2CCN(c3ccnc(N(C)C4CCC4)n3)C2)cc1 [Example 8.253]
16,670 nM,CC(=O)N[C@@H](C)c1ccc(O[C@@H]2CCN(c3ccnc(N4CCOCC4(C)C)n3)C2)cc1 [Example 8.86]
17,196 nM,CC(=O)N[C@@H](C)c1ccc(O[C@@H]2CCN(c3ncnc(O[C@@H]4CCOC4)c3F)C2)cc1 [Example 7.38]
18,144 nM,CCC(=O)N[C@@H](C)c1ccc(OC2CCN(c3ncnc(OCC4CC4)c3F)C2)cc1 (some centres unmarked) [Example 2.23]
19,67 nM,CC(=O)N[C@@H](C)c1ccc(O[C@@H]2CCN(c3nc(N4CCCC4)ncc3F)C2)cc1 [Example 8.12]
20,373 nM,CC(=O)N[C@@H](C)c1ccc(O[C@@H]2CCN(c3cc(OC4CCC4)ncn3)C2)cc1 [Example 7.4]
21,929 nM,CC(=O)N[C@@H](C)c1ccc(O[C@@H]2CCN(c3nccc(N4CCCC4)n3)C2)cc1 [Example 6.10]
22,349 nM,CC(=O)N[C@@H](C)c1ccc(O[C@@H]2CCN(c3ccnc(N(C)CCC#N)n3)C2)cc1 [Example 8.37]
23,809 nM,CCCNc1ncnc(N2CC[C@@H](Oc3ccc([C@H](C)NC(C)=O)cc3)C2)c1OC [Example 8.301]
24,206 nM,CC(=O)N[C@@H](C)c1ccc(O[C@@H]2CCN(c3ncnc(N(C)CC(F)F)c3F)C2)cc1 [Example 8.132]
25,566 nM,CC(=O)N[C@@H](C)c1ccc(O[C@@H]2CCN(c3ccnc(N4C[C@@H](C)O[C@@H](C)C4)n3)C2)cc1 [Example 8.85]
26,52 nM,CC(=O)N[C@@H](C)c1ccc(O[C@@H]2CCN(c3nc(N4CCC5(CC5)C4)ncc3F)C2)cc1 [Example 8.226]
27,89 nM,CC(=O)N[C@@H](C)c1ccc(O[C@@H]2CCN(c3ccnc(N(C)CC(F)(F)F)n3)C2)cc1 [Example 8.46]
28,312 nM,CCCN(C)c1ncc(C)c(N2CC[C@@H](Oc3ccc([C@H](C)NC(C)=O)cc3)C2)n1 [Example 8.48]
29,40 nM,C[C@H](NC(=O)N(C)C)c1ccc(OC2CCN(c3ccnc(N(C)CC(F)F)n3)C2)cc1 (some centres unmarked) [Example 3.1]
